Source: the CheMixHub ionic liquid set
Several values for one entry are separate records, joined by “and”; a condition that tells them apart may be missing. Equal values may be shown once. ± gives the uncertainty stated by the source.

Assay: xn = mol fraction of the nth substance listed
Details: 100 kPa; for electrical conductivity: frequency 0.003 MHz

C1COCCO1 + CCCC[n+]1ccn(C)c1.F[B-](F)(F)F
Details | viscosity [mPa·s]
298.15 K, x2 = 0 | 1.18 ± 0.016

CC1COC(=O)O1 (stereo not drawn) + CCCC[n+]1ccn(C)c1.F[B-](F)(F)F
Details | electrical conductivity [S/m] | viscosity
296.9 K, x2 = 0.4 | 0.993 ± 0.06 | –
297 K, x2 = 0.6 | 0.747 ± 0.045 | –
297 K, x2 = 0.8 | 0.59 ± 0.035 | –
297.1 K, x2 = 0.2 | 1.26 ± 0.076 | –
297.1 K, x2 = 0.9 | 0.441 ± 0.026 | –
298.1 K, x2 = 0.2 | – | 6.8 ± 0.7 mPa·s and 6.5 ± 0.7 mPa·s
298.1 K, x2 = 0.4 | – | 14.8 ± 1.5 mPa·s and 14.4 ± 1.5 mPa·s
298.1 K, x2 = 0.6 | – | 32.4 ± 3.3 mPa·s and 32.5 ± 3.3 mPa·s
298.1 K, x2 = 0.8 | – | 45.9 ± 4.6 mPa·s and 46.1 ± 4.7 mPa·s
298.1 K, x2 = 0.9 | – | 55.6 ± 5.6 mPa·s and 55.7 ± 5.7 mPa·s
298.15 K, x2 = 0.15 | – | 5.2 ± 0.2 mPa·s
298.15 K, x2 = 0.2 | – | 6.9 ± 0.3 mPa·s
299.9 K, x2 = 0.2 | 1.3 ± 0.078 | –
299.9 K, x2 = 0.4 | 1.04 ± 0.062 | –
299.9 K, x2 = 0.8 | 0.63 ± 0.038 | –
299.9 K, x2 = 0.9 | 0.482 ± 0.029 | –
300 K, x2 = 0.6 | 0.794 ± 0.048 | –
302.5 K, x2 = 0.9 | 0.522 ± 0.031 | –
302.6 K, x2 = 0.2 | 1.32 ± 0.079 | –
302.6 K, x2 = 0.6 | 0.84 ± 0.05 | –
302.6 K, x2 = 0.8 | 0.675 ± 0.041 | –
302.7 K, x2 = 0.4 | 1.08 ± 0.065 | –
303 K, x2 = 0.2 | – | 5.6 ± 0.6 mPa·s
303 K, x2 = 0.4 | – | 11.5 ± 1.2 mPa·s
303 K, x2 = 0.6 | – | 22.4 ± 2.3 mPa·s
303 K, x2 = 0.8 | – | 33.1 ± 3.3 mPa·s
303 K, x2 = 0.9 | – | 45.7 ± 4.6 mPa·s
305.4 K, x2 = 0.8 | 0.72 ± 0.043 | –
305.4 K, x2 = 0.9 | 0.564 ± 0.034 | –
305.5 K, x2 = 0.2 | 1.34 ± 0.08 | –
305.5 K, x2 = 0.4 | 1.13 ± 0.068 | –
305.6 K, x2 = 0.6 | 0.882 ± 0.053 | –
308.1 K, x2 = 0.2 | – | 5.1 ± 0.5 mPa·s
308.1 K, x2 = 0.4 | – | 10.1 ± 1 mPa·s
308.1 K, x2 = 0.6 | – | 18.8 ± 1.9 mPa·s
308.1 K, x2 = 0.8 | – | 25.8 ± 2.6 mPa·s
308.1 K, x2 = 0.9 | – | 36.5 ± 3.7 mPa·s
308.2 K, x2 = 0.2 | 1.36 ± 0.082 | –
308.2 K, x2 = 0.4 | 1.17 ± 0.07 | –
308.2 K, x2 = 0.6 | 0.93 ± 0.056 | –
308.2 K, x2 = 0.8 | 0.759 ± 0.046 | –
308.2 K, x2 = 0.9 | 0.607 ± 0.036 | –
310.9 K, x2 = 0.2 | 1.4 ± 0.084 | –
311 K, x2 = 0.6 | 0.968 ± 0.058 | –
311 K, x2 = 0.8 | 0.803 ± 0.048 | –
311 K, x2 = 0.9 | 0.65 ± 0.039 | –
311.2 K, x2 = 0.4 | 1.21 ± 0.073 | –
313 K, x2 = 0.2 | – | 4.3 ± 0.4 mPa·s
313 K, x2 = 0.4 | – | 8.6 ± 0.9 mPa·s
313 K, x2 = 0.6 | – | 15.7 ± 1.6 mPa·s
313 K, x2 = 0.8 | – | 21.6 ± 2.2 mPa·s
313 K, x2 = 0.9 | – | 31 ± 3.1 mPa·s
313.6 K, x2 = 0.4 | 1.25 ± 0.075 | –
313.6 K, x2 = 0.6 | 1.01 ± 0.06 | –
313.6 K, x2 = 0.8 | 0.846 ± 0.051 | –
313.6 K, x2 = 0.9 | 0.691 ± 0.041 | –
313.9 K, x2 = 0.2 | 1.41 ± 0.084 | –
316.5 K, x2 = 0.6 | 1.05 ± 0.063 | –
316.5 K, x2 = 0.8 | 0.892 ± 0.054 | –
316.6 K, x2 = 0.9 | 0.74 ± 0.044 | –
316.7 K, x2 = 0.2 | 1.43 ± 0.086 | –
316.7 K, x2 = 0.4 | 1.29 ± 0.077 | –
318.1 K, x2 = 0.2 | – | 3.8 ± 0.4 mPa·s
318.1 K, x2 = 0.4 | – | 7.6 ± 0.8 mPa·s
318.1 K, x2 = 0.6 | – | 12.6 ± 1.3 mPa·s
318.1 K, x2 = 0.8 | – | 18.5 ± 1.9 mPa·s
318.1 K, x2 = 0.9 | – | 25.4 ± 2.6 mPa·s
319.2 K, x2 = 0.4 | 1.32 ± 0.079 | –
319.3 K, x2 = 0.6 | 1.1 ± 0.066 | –
319.3 K, x2 = 0.8 | 0.933 ± 0.056 | –
319.5 K, x2 = 0.9 | 0.786 ± 0.047 | –
319.7 K, x2 = 0.2 | 1.45 ± 0.087 | –
322 K, x2 = 0.8 | 0.979 ± 0.059 | –
322 K, x2 = 0.9 | 0.829 ± 0.05 | –
322.2 K, x2 = 0.2 | 1.47 ± 0.088 | –
322.2 K, x2 = 0.4 | 1.35 ± 0.081 | –
322.2 K, x2 = 0.6 | 1.15 ± 0.069 | –
323 K, x2 = 0.2 | – | 3 ± 0.3 mPa·s
323 K, x2 = 0.4 | – | 6.5 ± 0.7 mPa·s
323 K, x2 = 0.6 | – | 10.6 ± 1.1 mPa·s
323 K, x2 = 0.8 | – | 16 ± 1.6 mPa·s
323 K, x2 = 0.9 | – | 22.1 ± 2.2 mPa·s
324.8 K, x2 = 0.4 | 1.38 ± 0.083 | –
324.8 K, x2 = 0.8 | 1.02 ± 0.061 | –
324.8 K, x2 = 0.9 | 0.874 ± 0.052 | –
325 K, x2 = 0.6 | 1.18 ± 0.071 | –
325.1 K, x2 = 0.2 | 1.49 ± 0.09 | –
327.4 K, x2 = 0.4 | 1.41 ± 0.084 | –
327.6 K, x2 = 0.6 | 1.22 ± 0.073 | –
327.6 K, x2 = 0.8 | 1.06 ± 0.064 | –
327.6 K, x2 = 0.9 | 0.921 ± 0.055 | –
327.8 K, x2 = 0.2 | 1.51 ± 0.091 | –
328.1 K, x2 = 0.2 | – | 2.6 ± 0.3 mPa·s
328.1 K, x2 = 0.4 | – | 5.8 ± 0.6 mPa·s
328.1 K, x2 = 0.6 | – | 9.3 ± 0.9 mPa·s
328.1 K, x2 = 0.8 | – | 14.2 ± 1.4 mPa·s
328.1 K, x2 = 0.9 | – | 19.7 ± 2 mPa·s
330.4 K, x2 = 0.6 | 1.25 ± 0.075 | –
330.6 K, x2 = 0.2 | 1.53 ± 0.092 | –
330.6 K, x2 = 0.4 | 1.44 ± 0.086 | –
330.6 K, x2 = 0.8 | 1.11 ± 0.067 | –
330.6 K, x2 = 0.9 | 0.971 ± 0.058 | –
333 K, x2 = 0.2 | – | 2.4 ± 0.2 mPa·s
333 K, x2 = 0.4 | – | 5.4 ± 0.5 mPa·s
333 K, x2 = 0.6 | – | 8.2 ± 0.8 mPa·s
333 K, x2 = 0.8 | – | 12.4 ± 1.2 mPa·s
333 K, x2 = 0.9 | – | 17.2 ± 1.7 mPa·s
333.2 K, x2 = 0.4 | 1.46 ± 0.088 | –
333.2 K, x2 = 0.6 | 1.29 ± 0.077 | –
333.2 K, x2 = 0.8 | 1.15 ± 0.069 | –
333.3 K, x2 = 0.9 | 1.01 ± 0.061 | –
333.4 K, x2 = 0.2 | 1.56 ± 0.094 | –
335.9 K, x2 = 0.6 | 1.33 ± 0.08 | –
335.9 K, x2 = 0.8 | 1.19 ± 0.072 | –
335.9 K, x2 = 0.9 | 1.06 ± 0.064 | –
336.1 K, x2 = 0.2 | 1.55 ± 0.093 | –
336.1 K, x2 = 0.4 | 1.49 ± 0.09 | –
338.1 K, x2 = 0.2 | – | 2.1 ± 0.2 mPa·s
338.1 K, x2 = 0.4 | – | 4.9 ± 0.5 mPa·s
338.1 K, x2 = 0.6 | – | 7.2 ± 0.7 mPa·s
338.1 K, x2 = 0.8 | – | 10.6 ± 1.1 mPa·s
338.1 K, x2 = 0.9 | – | 15.9 ± 1.6 mPa·s
338.7 K, x2 = 0.9 | 1.1 ± 0.066 | –
338.8 K, x2 = 0.6 | 1.36 ± 0.082 | –
338.9 K, x2 = 0.8 | 1.24 ± 0.074 | –
339 K, x2 = 0.4 | 1.52 ± 0.091 | –
339.1 K, x2 = 0.2 | 1.58 ± 0.095 | –
341.5 K, x2 = 0.4 | 1.55 ± 0.093 | –
341.6 K, x2 = 0.8 | 1.27 ± 0.076 | –
341.6 K, x2 = 0.9 | 1.16 ± 0.069 | –
341.8 K, x2 = 0.2 | 1.59 ± 0.096 | –
341.8 K, x2 = 0.6 | 1.39 ± 0.084 | –
343 K, x2 = 0.2 | – | 2.1 ± 0.2 mPa·s
343 K, x2 = 0.4 | – | 4.4 ± 0.4 mPa·s
343 K, x2 = 0.6 | – | 6.1 ± 0.6 mPa·s
343 K, x2 = 0.8 | – | 9.5 ± 1 mPa·s
343 K, x2 = 0.9 | – | 14.3 ± 1.4 mPa·s
344.2 K, x2 = 0.4 | 1.59 ± 0.095 | –
344.2 K, x2 = 0.6 | 1.43 ± 0.086 | –
344.3 K, x2 = 0.9 | 1.19 ± 0.072 | –
344.4 K, x2 = 0.2 | 1.62 ± 0.098 | –
344.4 K, x2 = 0.8 | 1.32 ± 0.079 | –
347 K, x2 = 0.6 | 1.47 ± 0.088 | –
347.1 K, x2 = 0.8 | 1.36 ± 0.082 | –
347.1 K, x2 = 0.9 | 1.25 ± 0.075 | –
347.2 K, x2 = 0.2 | 1.64 ± 0.098 | –
347.2 K, x2 = 0.4 | 1.6 ± 0.096 | –
348.1 K, x2 = 0.2 | – | 2.1 ± 0.2 mPa·s
348.1 K, x2 = 0.4 | – | 3.9 ± 0.4 mPa·s
348.1 K, x2 = 0.6 | – | 5.6 ± 0.6 mPa·s
348.1 K, x2 = 0.8 | – | 8.5 ± 0.9 mPa·s
348.1 K, x2 = 0.9 | – | 13 ± 1.3 mPa·s
349.6 K, x2 = 0.2 | 1.66 ± 0.099 | –
349.9 K, x2 = 0.9 | 1.3 ± 0.078 | –
350 K, x2 = 0.4 | 1.62 ± 0.097 | –
350 K, x2 = 0.6 | 1.5 ± 0.09 | –
350 K, x2 = 0.8 | 1.4 ± 0.084 | –
